Test results as given in patent US10981932B2, “Macrocyclic indole derivatives” (Bayer Aktiengesellschaft, priority 2016, dated 2021).

Key:
[1] = tested on: SUDHL5; assay: Anti-proliferative effect (CellTiter-Glo, 72 h), SUDHL5; type: cell-based; conditions: Homo sapiens, SU-DHL-5, 72 h, SUDHL5 cells, antiproliferation, 72 h, median, read-out: Antiproli SUDHL5 [M] (median)
How it was run: (§1)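 Endpoint: CellTiter-Glo luminescence, 10 min after reagent addition. Treatment ran 72 h at 37 °C, humidified. Growth was referenced to a separately plated day 0 plate.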

[2] = tested on: SUDHL5; assay: Induction of caspase-3/7 activity (Caspase-Glo 3/7), SUDHL5; type: cell-based; conditions: Homo sapiens, SU-DHL-5, 3 h, caspase-3/7 induction, SUDHL5 cells, 3 h treatment; median
How it was run: (§2)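 A 3 h, 37 °C compound incubation precedes the Caspase-Glo 3/7 read. After subtracting medium-only signal, EC50s are fitted against the reference compound's maximal caspase induction.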

[3] = tested on: SUDHL10; assay: Induction of caspase-3/7 activity (Caspase-Glo 3/7), SUDHL10; type: cell-based; conditions: Homo sapiens, SU-DHL10, 3 h, caspase-3/7 induction, SUDHL10 cells, 3 h treatment; median
How it was run: as §2

[4] = tested on: SUDHL5; assay: Induction of cytotoxicity (CellTiter-Glo, 5 h), SUDHL5; conditions: Homo sapiens, SU-DHL-5, 5 h, read-out: Cytotox SUDHL5 [M] (median), SUDHL5 cells, cytotoxicity induction, CellTiter-Glo, 5 h, median
[5] = tested on: A2780; assay: Anti-proliferative effect (CellTiter-Glo, 72 h), A2780; type: cell-based; conditions: Homo sapiens, A2780, 72 h, A2780 cells, median, read-out: IC50 antiproliferation assay A2780 [M] (median)
How it was run: as §1

[6] = biological target: MCL-1 (Homo sapiens, UniProt Q07820); assay: Protein-protein interaction assay MCL-1/Noxa BH3 peptide (MCL-1 assay), TR-FRET; type: binding; conditions: MBP-MCL-1 / Noxa BH3-derived peptide, median
MCL-1, sequence (Q07820 whole entry): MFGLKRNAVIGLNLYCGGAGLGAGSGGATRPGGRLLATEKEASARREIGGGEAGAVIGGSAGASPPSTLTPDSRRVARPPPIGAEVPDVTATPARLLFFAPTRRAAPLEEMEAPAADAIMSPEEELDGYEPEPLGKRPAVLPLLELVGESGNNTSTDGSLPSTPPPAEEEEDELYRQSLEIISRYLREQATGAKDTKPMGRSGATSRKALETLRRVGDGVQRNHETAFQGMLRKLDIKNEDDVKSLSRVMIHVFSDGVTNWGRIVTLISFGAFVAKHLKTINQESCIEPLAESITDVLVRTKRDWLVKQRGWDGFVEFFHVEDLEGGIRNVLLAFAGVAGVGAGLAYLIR
How it was run: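 Steady-state competition, MCL-1/Noxa BH3, TR-FRET readout; 1 nM MBP-MCL-1, 11-point dose series 0.1 nM–20 μM; overnight 4 °C equilibration; 4-parameter IC50.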

[7] = tested on: SUDHL10; assay: Anti-proliferative effect (CellTiter-Glo, 72 h), SUDHL10; type: cell-based; conditions: Homo sapiens, SU-DHL10, 72 h, SUDHL10 cells, antiproliferation, 72 h, median, read-out: Antiproli SUDHL10 [M] (median)
How it was run: as §1

[8] = tested on: SUDHL10; assay: Induction of cytotoxicity (CellTiter-Glo, 5 h), SUDHL10; conditions: Homo sapiens, SU-DHL10, 5 h, read-out: Cytotox SUDHL10 [M] (median), SUDHL10 cells, cytotoxicity induction, CellTiter-Glo, 5 h, median

| Structure (SMILES) | IC50 [1] | EC50 [2] | EC50 [3] | IC50 [4] | IC50 [5] | IC50 [6] | IC50 [7] | IC50 [8] |
| --- | --- | --- | --- | --- | --- | --- | --- | --- |
| Cn1nc(CN2CCCCC2=O)c2c1COCCCCn1c(C(=O)O)c(CCCOc3cccc4ccccc34)c3cccc-2c31 (racemic) [Example 325, (rac)-1-methyl-7-[3-(naphthalen-1-yloxy)propyl]-3-[(2-oxopiperidin-1-yl)methyl]-1,10,11,12,13,15-hexahydropyrazolo[4′,3′:9,10][1,6]oxazacycloundecino[8,7,6-hi]indole-8-carboxylic Acid] | 2.13e-05 M | > 33 µM | > 33 µM | > 3.3e-05 M | > 3.3e-05 M | 0.0802 µM | 1.45e-05 M | > 3.3e-05 M |
| Cn1nc(CN2CCCC2=O)c2c1COCCCCn1c(C(=O)O)c(CCCOc3cccc4ccccc34)c3cccc-2c31 (racemic) [Example 328, (rac)-1-methyl-7-[3-(naphthalen-1-yloxy)propyl]-3-[(2-oxopyrrolidin-1-yl)methyl]-1,10,11,12,13,15-hexahydropyrazolo[4′,3′:9,10][1,6]oxazacycloundecino[8,7,6-hi]indole-8-carboxylic Acid] | 1.87e-05 M | > 33 µM | > 33 µM | > 3.3e-05 M | > 3.3e-05 M | 0.0467 µM | 1.9e-05 M | > 3.3e-05 M |
| CN(C)Cc1nn(C)c2c1-c1cccc3c(CCCOc4cccc5ccccc45)c(C(=O)O)n(c13)CCCCOC2 (racemic) [Example 331, (rac)-3-[(dimethylamino)methyl]-1-methyl-7-[3-(naphthalen-1-yloxy)propyl]-1,10,11,12,13,15-hexahydropyrazolo[4′,3′:9,10][1,6]oxazacycloundecino[8,7,6-hi]indole-8-carboxylic Acid] | > 3.3e-05 M | > 33 µM | > 33 µM | > 3.3e-05 M | > 3.3e-05 M | 0.185 µM | > 3.3e-05 M | > 3.3e-05 M |
| Cn1nc(CN2CCCCC2)c2c1COCCCCn1c(C(=O)O)c(CCCOc3cccc4ccccc34)c3cccc-2c31 (racemic) [Example 332, (rac)-1-methyl-7-[3-(naphthalen-1-yloxy)propyl]-3-(piperidin-1-ylmethyl)-1,10,11,12,13,15-hexahydropyrazolo[4′,3′:9,10][1,6]oxazacycloundecino[8,7,6-hi]indole-8-carboxylic Acid] | 9.13e-06 M | 18.9 µM | > 33 µM | 1.94e-05 M | > 3.3e-05 M | 0.203 µM | 2.02e-05 M | > 3.3e-05 M |
| Cn1nc(CN2CCCC2)c2c1COCCCCn1c(C(=O)O)c(CCCOc3cccc4ccccc34)c3cccc-2c31 (racemic) [Example 335, (rac)-1-methyl-7-[3-(naphthalen-1-yloxy)propyl]-3-(pyrrolidin-1-ylmethyl)-1,10,11,12,13,15-hexahydropyrazolo[4′3′:9,10][1,6]oxazacycloundecino[8,7,6-hi]indole-8-carboxylic Acid] | 1.93e-05 M | 27.2 µM | > 33 µM | 2.57e-05 M | 2.35e-05 M | 0.18 µM | 2.24e-05 M | 2.77e-05 M |
| Cn1nc(CN)c2c1COCCCCn1c(C(=O)O)c(CCCOc3cccc4ccccc34)c3cccc-2c31 (racemic) [Example 338, (rac)-3-(aminomethyl)-1-methyl-7-[3-(naphthalen-1-yloxy)propyl]-1,10,11,12,13,15-hexahydropyrazolo[4′,3′:9,10][1,6]oxazacycloundecino[8,7,6-hi]indole-8-carboxylic Acid] | > 3.3e-05 M | > 33 µM | > 33 µM | > 3.3e-05 M | > 3.3e-05 M | 0.048 µM | > 3.3e-05 M | > 3.3e-05 M |
| CC(=O)NCc1nn(C)c2c1-c1cccc3c(CCCOc4cccc5ccccc45)c(C(=O)O)n(c13)CCCCOC2 (racemic) [Example 339, (rac)-3-[(acetylamino)methyl]-1-methyl-7-[3-(naphthalen-1-yloxy)propyl]-1,10,11,12,13,15-hexahydropyrazolo[4′,3′:9,10][1,6]oxazacycloundecino[8,7,6-hi]indole-8-carboxylic Acid] | > 3.3e-05 M | > 33 µM | > 33 µM | > 3.3e-05 M | > 3.3e-05 M | 0.032 µM | > 3.3e-05 M | > 3.3e-05 M |
| CC(=O)N(C)Cc1nn(C)c2c1-c1cccc3c(CCCOc4cccc5ccccc45)c(C(=O)O)n(c13)CCCCOC2 (racemic) [Example 342, (rac)-3-{[acetyl(methyl)amino]methyl}-1-methyl-7-[3-(naphthalen-1-yloxy)propyl]-1,10,11,12,13,15-hexahydropyrazolo[4′,3′:9,10][1,6]oxazacycloundecino[8,7,6-hi]indole-8-carboxylic Acid] | 3.15e-05 M | 25 µM | > 33 µM | > 3.3e-05 M | > 3.3e-05 M | 0.0451 µM | 1.9e-05 M | > 3.3e-05 M |
| Cn1nc(COCc2ccc(C(N)=O)cc2)c2c1COCCCCn1c(C(=O)O)c(CCCOc3cccc4ccccc34)c3cccc-2c31 (racemic) [Example 346, (rac)-3-{[(4-carbamoylbenzyl)oxy]methyl}-1-methyl-7-[3-(naphthalen-1-yloxy)propyl]-1,10,11,12,13,15-hexahydropyrazolo[4′,3′:9,10][1,6]oxazacycloundecino[8,7,6-hi]indole-8-carboxylic Acid] | 9.09e-06 M | 25.1 µM | 32.4 µM | 2.02e-05 M | 2.32e-05 M | 0.0142 µM | 3.54e-06 M | > 3.3e-05 M |
| COc1ccc2c(CCCOc3cccc4ccccc34)c(C(=O)O)n3c2c1-c1c(nn(C)c1C)COCCCC3 (racemic) [Example 349, (rac)-4-methoxy-2,3-dimethyl-7-[3-(naphthalen-1-yloxy)propyl]-2,10,11,12,13,15-hexahydropyrazolo[4′,3′:9,10][1,6]oxazacycloundecino[8,7,6-hi]indole-8-carboxylic Acid] | 1.86e-05 M | 31 µM | > 33 µM | 2.43e-05 M | > 3.3e-05 M | 0.0819 µM | 1.67e-05 M | > 3.3e-05 M |
| CN1CCN(Cc2c3c(nn2C)COCCCCn2c(C(=O)O)c(CCCOc4cccc5ccccc45)c4cccc-3c42)CC1 (racemic) [Example 359, (rac)-2-methyl-3-[(4-methylpiperazin-1-yl)methyl]-7-[3-(naphthalen-1-yloxy)propyl]-2,10,11,12,13,15-hexahydropyrazolo[4′,3′:9,10][1,6]oxazacycloundecino[8,7,6-hi]indole-8-carboxylic Acid] | > 3.3e-05 M | > 33 µM | > 33 µM | > 3.3e-05 M | > 3.3e-05 M | 0.075 µM | > 3.3e-05 M | > 3.3e-05 M |
| CN1CCCn2c(C(=O)O)c(CCCOc3cccc4ccccc34)c3cccc(c32)-c2c(nn3c2OCCC3)C1 (racemic) [Example 360, (rac)-7-methyl-1-[3-(naphthalen-1-yloxy)propyl]-5,6,7,8,12,13-hexahydro-4H,11H-[1,3]oxazino[3″,2″:1′,5′]pyrazolo[3′,4′:7,8][1,5]diazecino[9,10,1-hi]indole-2-carboxylic Acid] | 2.12e-05 M | 32.6 µM | > 33 µM | > 3.3e-05 M | > 3.3e-05 M | 0.0198 µM | 1.44e-05 M | > 3.3e-05 M |
| CN1CCCn2c(C(=O)O)c(CCCOc3cccc4ccccc34)c3cccc(c32)-c2c(nn3c2CCCC3)C1 (racemic) [Example 361, (rac)-7-methyl-1-[3-(naphthalen-1-yloxy)propyl]-5,6,7,8,11,12,13,14-octahydro-4H-pyrido[1″,2″:1′,5′]pyrazolo[3′,4′:7,8][1,5]diazecino[9,10,1-hi]indole-2-carboxylic Acid] | 3.66e-06 M | 10.1 µM | > 33 µM | 1.09e-05 M | > 3.3e-05 M | 0.0248 µM | 7.7e-06 M | 1.84e-05 M |
